From PubChem BioAssay AID1259333 (Broad Institute, 2017) come the findings set out here.

Where “and” joins values, the source holds several entries; their conditions need not be identical. Equal values may be shown once. Calls of active or inactive are those of the source. How the calls were made is not given here; tested in parental BL2 cells. Numbered stars: 1 amine (or outer) side, 2 acyl side, 3 side chain; on linkers, the order of the positions; unused ones are H or OH. Bridge positions count the residues as written; N and C are the ends. Square brackets hold non-standard residues; d marks the D form. Peptide text beside a SMILES is read from it. I, II: the chains in the order shown. Actinocin(9to1) = Cc1c2oc3c(C)ccc(C(=O)[*:1])c3nc-2c(C(=O)[*:2])c(N)c1=O; NMeV = CN[CH](C(=O)O)C(C)C; Sar = CNCC(=O)O Some results are limits rather than exact numbers.

The test concerns cytotoxicity, CellTiter-Glo ATP luminescence. The experiment in a line: cell cytotoxicity, dose response, cytotoxicity control, CellTiter-Glo (AID 1259333). A general note: ATP-based viability assays read luminescence as a measure of living cells.

Broadly, the AC50 is the midpoint of the concentration-response curve, whichever way the signal moves. Consider `C[C@H]1O[C@@H](O[C@H]2[C@@H](O)C[C@H](O[C@H]3[C@@H](O)C[C@H](O[C@H]4CC[C@]5(C)C6C[C@@H](O)[C@]7(C)[C@@H](C8=CC(=O)OC8)CC[C@]7(O)C6CC[C@@H]5C4)O[C@@H]3C)O[C@@H]2C)C[C@H](O)[C@@H]1O` (some centres undefined), for which the AC50 is 2.71 µM.

As for `COc1ccc(CC2C(=O)NC(C)C(=O)N(C)C3C(=O)N(C)C(Cc4ccc(O)c(c4)Oc4ccc(cc4)C3O)C(=O)NC(C)C(=O)NC(C)C(=O)N2C)cc1` (centres undefined), the AC50 is 8.5 µM.

Consider `COc1ccc(/C=N/Nc2ncccc2[N+](=O)[O-])c(OC)c1`, for which the AC50 was 5.79 µM.

Consider `COc1ccc(-c2cc(-c3ccccc3)c(C#N)c(S(C)=O)n2)cc1` (centres undefined), for which the AC50 is 3 µM.

Regarding `N#C[C@@H]1[C@H](c2ccc(C#CC3CCCCC3)cc2)[C@H](CO)N1C(=O)Nc1ccc(F)cc1`, the AC50 is > 20 µM (inactive).

Consider `COc1ccc(/C=C2/CCC(CN3CCOCC3)C2=O)cc1` (centres undefined), for which the AC50 was 7.4 µM.

Consider `C=C1C(=O)C23C(O)C1CCC2C12CCCC(C)(COC(C)=O)C1C(O)C3(O)OC2` (centres undefined), for which the AC50 is 5.52 µM.

On to `C[C@@H]1CN([C@@H](C)CO)C(=O)c2ccccc2-c2ccccc2CO[C@@H]1CN(C)Cc1ccccc1C(F)(F)F`, for which the AC50 is > 20 µM (inactive).

With `N#C[C@H]1[C@H](c2ccc(C#CC3CCCCC3)cc2)[C@H](CO)N1C(=O)Nc1ccc(F)cc1`, the AC50 is > 20 µM (inactive).

In the case of `CCS(=O)(=O)N1Cc2ccccc2CC1C(=O)Nc1nc2ccccc2s1` (centres undefined), the AC50 was 5.74 µM.

Turning to `CCN(CC)CCCNc1nc2ccccc2c2[nH]c3ccc(OC)cc3c12`, the half-maximal activity concentration (AC50) was 6.93 µM.

For `COC(=O)C1=C(C(=O)OC)C(C(=O)OC)C(C(=O)OC)C(C(=O)OC)(C(=O)OC)C(C(=O)OC)=C1C(=O)OC` (centres undefined), the AC50 was 7.79 µM.

With `CC12CCC3C(CCC4(O)CC(O)CCC34C=O)C1(O)CCC2C1=CC(=O)OC1` (centres undefined), the AC50 was 3.23 µM.

As for `C[C@H]1CN([C@@H](C)CO)C(=O)c2c(c3ccccc3n2C)-c2ccccc2CO[C@H]1CN(C)C(=O)Nc1cccc(C(F)(F)F)c1`, the AC50 was 0.878 µM.

`C[C@@H]1CN([C@@H](C)CO)C(=O)c2c(c3ccccc3n2C)-c2ccccc2CO[C@@H]1CN(C)Cc1cccc(C(F)(F)F)c1`: the AC50 was > 20 µM (inactive).

For `N#Cc1cccc(-c2ccc(C3[C@H]4CNC[C@@H]3N4Cc3ccc4c(c3)OCO4)cc2)c1` (some centres undefined), the AC50 is > 20 µM (inactive).

As to `CC(C)CCCCCCCCCCCCC(=O)NCC(=O)NC1C(O)C(O)C(Nc2ncnc3nc[nH]c23)OC1C(O)CO` (centres undefined), the AC50 is 9.02 µM.

Take `O=C(NCCC(c1ccccc1)c1ccco1)c1cccs1` (centres undefined): the AC50 is > 20 µM (inactive).

Turning to `CCCCCCCCCCCCCCCC[n+]1ccccc1`, the AC50 was 1.55 µM.

For `C[C@@H]1CN([C@H](C)CO)C(=O)c2c(c3ccccc3n2C)-c2ccccc2CO[C@H]1CN(C)Cc1cccc(C(F)(F)F)c1`, the AC50 was > 20 µM (inactive).

Regarding `Cc1noc(C)c1S(=O)(=O)Nc1ccc2c(c1)CC(=O)N([C@@H](C)CO)C[C@@H](C)[C@@H](CN(C)Cc1ccc(Oc3ccccc3)cc1)O2`, the AC50 is > 20 µM (inactive).

Regarding `O=C(Cc1ccccc1)N1CC[C@@H]2[C@H]1c1cc(C#Cc3cccc(F)c3)ccc1N[C@@H]2CO`, the AC50 was 10.8 µM.

As to `CC1CC(C)(O)CC(C(O)CC2CC(=O)NC(=O)C2)C1=O` (centres undefined), the AC50 is 7.54 µM.

Turning to `C[C@H]1CN([C@@H](C)CO)C(=O)c2ccccc2-c2ccccc2CO[C@@H]1CN(C)Cc1ccccc1C(F)(F)F`, the AC50 was 10.5 µM.

On to `COc1ccc(/C=C/C(=O)Nc2ccccc2C(=O)O)cc1OC`, for which the AC50 was > 20 µM (inactive).

As to `CCCC(=O)NC1=C(Cl)C(=O)c2ccccc2C1=O`, the AC50 is 1.12 µM.

Regarding `Cc1c(CCOC(=O)CC23CC4CC(CC(C)(C4)C2)C3)sc[n+]1CC(=O)c1ccccc1`, the AC50 was 5.88 µM.

For `Cc1c2oc3c(C)ccc(C(=O)OC(C)C4NC(=O)C(C(C)C)N(C)C(=O)CN(C)C(=O)C5CCCN5C(=O)C(C(C)C)NC4=O)c3nc-2c(C(=O)OC(C)C2NC(=O)C(C(C)C)N(C)C(=O)CN(C)C(=O)C3CCCN3C(=O)C(C(C)C)NC2=O)c(N)c1=O` (centres undefined) (I: cyclo([Sar][NMeV]TVP) / II: cyclo([Sar][NMeV]TVP); linker I:3-II:3 via Actinocin(9to1); configuration not given here), the AC50 was > 20 µM (inactive).

With `Cn1cc(C2=C(c3cn(CCCSC(=N)N)c4ccccc34)C(=O)NC2=O)c2ccccc21`, the AC50 was 0.388 µM.

`C[C@@H]1O[C@@H](O[C@H]2C[C@@H](O)[C@]3(CO)C4C(CC[C@]3(O)C2)[C@@]2(O)CC[C@H](C3=CC(=O)OC3)[C@@]2(C)C[C@H]4O)[C@H](O)[C@H](O)[C@H]1O` (some centres undefined): the AC50 is 0.379 µM.

As to `O=C1NC2c3c(I)sc(I)c3C(=O)C2O1` (centres undefined), the AC50 was 6.34 µM.

For `Oc1c(Cl)cc(Cl)c(Cl)c1Cc1c(O)c(Cl)cc(Cl)c1Cl`, the AC50 was 10.2 µM.

On to `C[C@@H]1CN([C@@H](C)CO)C(=O)c2c(c3ccccc3n2C)-c2ccccc2CO[C@H]1CN(C)C(=O)Nc1cccc(C(F)(F)F)c1`, for which the AC50 is 1.4 µM.

In the case of `CC(C)(C)CC(C)(C)c1ccc(O)c(Cc2ccc(Cl)cc2Cl)c1`, the AC50 was 7.05 µM.

With `COc1ccc(S(=O)(=O)Nc2ccc3c(c2)C(=O)N([C@@H](C)CO)C[C@H](C)[C@H](CN(C)Cc2ccc(C(F)(F)F)cc2)OCCCC[C@H](C)O3)cc1`, the AC50 was > 20 µM (inactive).

Turning to `c1ccc2nc(-c3nc4ccccc4o3)ccc2c1`, the AC50 is > 20 µM (inactive).

Turning to `COCC(C)n1c(C)cc(C(=O)COC(=O)c2cccn2C)c1C` (centres undefined), the AC50 was > 7 µM (inactive).

With `Cc1ccsc1C(=O)OCC(=O)c1cc(C)n(CC2CCCO2)c1C` (centres undefined), the AC50 was > 20 µM (inactive).

Turning to `C[C@H](CO)N1C[C@H](C)[C@H](CN(C)CC2CCCCC2)OCCCC[C@H](C)Oc2ccc(NC(=O)Nc3ccc(C(F)(F)F)cc3)cc2C1=O`, the AC50 was > 20 µM (inactive).

Regarding `Cn1cnc([N+](=O)[O-])c1S(=O)(=O)Oc1cccc2ccccc12`, the AC50 is 1.91 µM.

On to `c1ccc(-c2nc(-c3ccccn3)no2)cc1`, for which the AC50 is 11.5 µM.

Turning to `CC(=O)O[C@H]1C[C@H](O[C@H]2[C@@H](O)C[C@H](O[C@H]3[C@@H](O)C[C@H](O[C@H]4CC[C@@]5(C)C(CCC6C5C[C@@H](O)[C@]5(C)[C@@H](C7=CC(=O)OC7)CC[C@]65O)C4)O[C@@H]3C)O[C@@H]2C)O[C@H](C)[C@H]1O[C@@H]1O[C@H](CO)[C@@H](O)[C@H](O)[C@H]1O` (some centres undefined), the AC50 is 0.758 µM.

Consider `Cc1ccc2c(=O)c3ccccc3n(CCCN)c2c1C`, for which the AC50 is 2.79 µM.

For `CC1OC(OC2C(O)CC(OC3C(O)CC(OC4CCC5(C)C(CCC6C5CCC5(C)C(C7=CC(=O)OC7)C(O)CC65O)C4)OC3C)OC2C)CC(O)C1O` (centres undefined), the AC50 was 0.625 µM.

In the case of `CC(C(=O)O)c1ccc(N2Cc3ccccc3C2=O)cc1` (centres undefined), the AC50 is 9.56 µM.

For `C[C@H](CO)N1C[C@H](C)[C@H](CN(C)S(=O)(=O)c2ccc([N+](=O)[O-])cc2)OCc2ccccc2-c2c(n(C)c3ccccc23)C1=O`, the AC50 was > 20 µM (inactive).

With `O=C1NC2C(O)C(O)C(O)C(O)C2c2cc3c(c(O)c21)OCO3` (centres undefined), the AC50 was 9.05 µM.

As to `C[C@@H]1CN([C@@H](C)CO)C(=O)c2ccccc2-c2ccccc2CO[C@H]1CN(C)Cc1ccccc1C(F)(F)F`, the AC50 was 7.28 µM.

Take `Cc1noc(C)c1S(=O)(=O)N(C)C[C@H]1OCc2ccccc2-c2c(n(C)c3ccccc23)C(=O)N([C@@H](C)CO)C[C@H]1C`: the AC50 was 10.1 µM.

On to `O=C1NC2C(=CC(O)C(O)C2O)c2cc3c(c(O)c21)OCO3` (centres undefined), for which the AC50 was 10 µM.

For `CC(=O)Nc1ccc(Sc2ccc([N+](=O)[O-])o2)cc1`, the AC50 is 6.13 µM.

With `COc1cc2cc(C(=O)N3CC(COS(C)(=O)=O)c4ccc(O)cc43)[nH]c2c(OC)c1OC` (centres undefined), the AC50 is 0.276 µM.

Turning to `O=C(c1ccc(Nc2nccc(-c3cc4ccccc4s3)n2)cc1)N1CCC(N2CCCC2)CC1`, the AC50 was 3.83 µM and 1.17 µM.

As to `O=C(Nc1ccc(C(F)(F)F)cc1)N1C[C@@H]2N[C@H](C1)C2c1ccc(-c2ccccc2)cc1` (some centres undefined), the AC50 was 8.09 µM.

On to `Nc1cccc2nc3ccccc3cc12`, for which the AC50 was 1.96 µM.

Turning to `CC(C)[C@H](N)C(=O)N[C@H]1CCC2C3CC=C4C[C@@H](O)CC[C@]4(C)C3CC[C@@]21C` (some centres undefined), the AC50 was 6.89 µM.

For `COc1ccc(NC(=O)O/N=C/c2c(C)nn(C(C)(C)C)c2C)cc1`, the AC50 is 7.85 µM.

As to `CSc1ccc2c(c1)N(CCC1CCCCN1C)c1ccccc1S2` (centres undefined), the concentration at half-maximal activity (AC50) was 8.67 µM.

For the compound `CCCNC(=O)N1[C@H](C#N)[C@H](c2ccc(C3=CCCCC3)cc2)[C@@H]1CO`, the AC50 was > 20 µM (inactive).

For `CC(C)(C)c1cc(C=C(C#N)C#N)cc(C(C)(C)C)c1O`, the AC50 is > 20 µM (inactive).

As to `C[C@@H]1CN([C@@H](C)CO)C(=O)c2c(c3ccccc3n2C)-c2ccccc2CO[C@H]1CN(C)Cc1cccc(C(F)(F)F)c1`, the AC50 is 3.94 µM.

Regarding `Clc1ccc(C(Cn2ccnc2)OCc2ccsc2Cl)c(Cl)c1` (centres undefined), the AC50 is > 20 µM (inactive).

On to `Cc1cnc(NC(=O)c2ccccn2)s1`, for which the AC50 is 7.7 µM.

Regarding `CC1CC(C)C(=O)C(C(O)CC2CC(=O)NC(=O)C2)C1` (centres undefined), the AC50 is > 20 µM (inactive).

In the case of `c1ccc2sc(-c3ccc4c(c3)OCO4)nc2c1`, the AC50 was 5.19 µM.

Take `Fc1ccccc1CNCCC(Cc1ccccc1)c1ccc2c(c1)OCO2` (centres undefined): the AC50 was > 20 µM (inactive).

`Cc1c(C(=O)c2cccc3ccccc23)c2cccc3c2n1[C@H](CN1CCOCC1)CO3`: the AC50 was 3.44 µM.

Consider `CC[N+]1(C)CCC(O)(c2ccc(OC)cc2)C(C(=O)c2ccc(OC)cc2)C1` (centres undefined), for which the AC50 is 5.1 µM.

Take `CNc1c2cccc(C)c2nc2c(C(=O)NCCN(C)C)cccc12`: the AC50 was 5.98 µM.

Take `COc1cc(C(C)C)c2c(c1)S(=O)(=O)N(COc1cc(=O)n3cccc(OCCN4CCCCC4)c3n1)C2=O`: the AC50 is 10.5 µM.

With `COc1ccc(C(=O)O/N=C2\C(=O)N(C)c3ccccc32)cc1`, the AC50 was 2 µM.

Regarding `CC[C@@]1(O)C(=O)OCc2c1cc1n(c2=O)Cc2cc3ccccc3nc2-1`, the AC50 was 9.41 µM.

Regarding `C[C@H]1CN([C@@H](C)CO)C(=O)c2c(c3ccccc3n2C)-c2ccccc2CO[C@@H]1CN(C)S(=O)(=O)c1ccc([N+](=O)[O-])cc1`, the AC50 is > 20 µM (inactive).

For the compound `COc1ccc(/C=C\c2nc(=O)c3ccccc3o2)cc1`, the AC50 is 6.79 µM.
